The source of these data is BindingDB's records for patent US20240376113 (Volastra Therapeutics, 2024).

The experiment has as its target T1, Ectonucleotide pyrophosphatase/phosphodiesterase family member 1 (Homo sapiens, UniProt P22413).
T1 sequence (P22413 whole entry): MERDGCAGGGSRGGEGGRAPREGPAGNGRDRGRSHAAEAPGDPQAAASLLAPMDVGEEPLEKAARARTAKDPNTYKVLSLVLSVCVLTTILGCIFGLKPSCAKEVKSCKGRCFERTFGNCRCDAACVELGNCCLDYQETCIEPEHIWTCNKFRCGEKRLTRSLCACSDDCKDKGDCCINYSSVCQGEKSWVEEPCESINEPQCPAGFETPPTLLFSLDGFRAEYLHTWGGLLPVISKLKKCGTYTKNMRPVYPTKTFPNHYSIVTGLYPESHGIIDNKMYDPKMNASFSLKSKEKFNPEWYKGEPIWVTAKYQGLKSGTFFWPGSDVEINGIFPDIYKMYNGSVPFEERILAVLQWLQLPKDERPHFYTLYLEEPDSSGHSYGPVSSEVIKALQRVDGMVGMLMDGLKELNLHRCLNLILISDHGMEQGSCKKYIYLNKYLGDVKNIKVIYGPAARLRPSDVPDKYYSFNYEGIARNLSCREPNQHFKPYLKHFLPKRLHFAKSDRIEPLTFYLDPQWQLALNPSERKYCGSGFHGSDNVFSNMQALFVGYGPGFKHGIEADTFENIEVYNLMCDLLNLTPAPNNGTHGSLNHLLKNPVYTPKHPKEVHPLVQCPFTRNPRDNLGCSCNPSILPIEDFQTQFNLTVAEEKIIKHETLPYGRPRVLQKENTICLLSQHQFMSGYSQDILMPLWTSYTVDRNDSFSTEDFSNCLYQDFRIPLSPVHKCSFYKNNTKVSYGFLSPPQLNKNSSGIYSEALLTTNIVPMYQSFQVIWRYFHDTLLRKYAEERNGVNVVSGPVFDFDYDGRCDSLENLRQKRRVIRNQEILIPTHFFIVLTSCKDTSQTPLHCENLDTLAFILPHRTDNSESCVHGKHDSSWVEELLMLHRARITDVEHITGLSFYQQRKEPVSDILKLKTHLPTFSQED
In words: Inhibition of ENPP1 hydrolysis of 2′,3′-cGAMP (Assay 1). How it is done:
Test compounds were plated in a 3× dilution scheme in a 384 well plate.

In general, Ki refers to a measure of affinity in units of concentration, obtained from inhibition or displacement.

On to `Cc1c(Cc2ccc(S(C)(=N)=O)cc2)c(N(C)C)nc2ncnn12` (configuration not stated) [US20240376113, Compound 86], for which affinity was put at a Ki of 0.138 nM.

Compound `Cc1c(Cc2ccc(S(C)(=N)=O)cc2)c(N)cc2ncnn12` (configuration not stated) [US20240376113, Compound 89] returned a Ki of 28 nM.
